The data set is described as follows: CSF DB829 concentrations in infected vervet monkeys. Format: in vivo, vervet monkey. The note with it: for concentration at 1 h: 5 mg/kg/day, read-out: geometric mean CSF DB829 concentration. An excerpt:
Parasitaemia post-infection was monitored daily, using ear-prick capillary blood, through the completion of DB868 and DB829 treatment. […] At 300 days post-LDD, monkeys were considered cured if they remained normal clinically and parasite-free in the blood and CSF. Pharmacokinetic outcomes were monitored for a minimum of 60 days post-LDD as described previously. […] Monkeys that relapsed, characterized by trypanosome recrudescence in the blood or CSF, were rescue-treated with melarsoprol.
Plasma samples were processed for quantification of DB868 and DB829 by high performance liquid chromatography-tandem mass spectrometry (HPLC-MS/MS) as described previously. CSF samples were processed in a manner similar to that of plasma samples.

Read-outs that look alike come from different tables or passages of the source.

Regarding `N=C(N)c1ccc(-c2ccc(-c3ccc(C(=N)N)cn3)o2)nc1` [DB829, 2,5-bis(5-amidino-2-pyridyl)furan], the “CSF DB829 concentration” value is recorded as under 5 nmol/L (IM 2.5 mg/kg/day consecutive-day dose group, limit of quantification 5 nmol/L); “below the limit of quantification” (IM 5 mg/kg/day consecutive-day dose group, by 28 days post-LDD); “not quantifiable” (monkeys treated with oral DB868). Also, under “IM 5 mg/kg/day alternate-day dose group, 1 h post-LDD”, the “geometric mean CSF DB829 concentration” value was about 7.3 nmol/L. For the same molecule, for the setting “IM 5 mg/kg/day regimens”, the “time DB829 CSF concentrations maintained above 5 nmol/L” value is 2–28 days post-LDD. Besides, the concentration at 1 h stood at 7.3 nM (monkey, CSF, intramuscular, IM 5 mg/kg/day alternate-day dose group, 1 h post-LDD) and 14 nM (monkey, CSF, intramuscular, IM 5 mg/kg/day consecutive-day dose group, 1 h post-LDD). For the same molecule, the Kp at 1 h (monkey, CSF, intramuscular, IM 5 mg/kg/day, either regimen, 1 h post-LDD, read-out: CSF concentration as share of total (bound + unbound) plasma concentration) was about 0.001.
